# Like-named read-outs stand apart in the source and are kept apart here. Positions of bridges follow the written chain, without caps; N, C: chain ends. Residues, ends and D or L forms follow the SMILES beside them.
# What was measured:
# [1] = test system: C. koseri (CI 1611SED223); experiment: microbe, parasite or virus in culture; format: cell-based, Citrobacter koseri; details: 18 h
# Protocol: (§1) The minimum inhibitory concentration (MIC) of the Brevinin-1BW was measured in 96-well microtiter plates according to the Clinical and Laboratory Standards Institute (CLSI). The activated strains were treated with Mueller Hinton Agar (MHA) solid medium. Single colonies were picked and expanded to the logarithmic growth phase, and the solution was diluted to 2 × 10^6 CFU/mL using the McFarland turbidity standard. The MIC was determined with the two-fold dilution method. Briefly, 50 μL of Mueller Hinton (MH) medium was added to a 96-well plate in advance. Then, 50 μL of AMP solution was added to the first well, and 50 μL was pipetted into the next well after mixing using a row gun, while 50 μL was discarded from the last well. Final concentrations of Brevinin-1BW were 100, 50, 25, 12.5, 6.25, and 3.125 μg/mL. A 50 μL volume of the diluted bacterial solution was added, and the final concentration of the bacterial solution was 1 × 10^6 CFU/mL. This was then placed into a 37 °C incubator for 18 h until the next day to observe the degree of turbidity of the 96-well plate and measure the absorbance of the wells at 600 nm with a multifunctional microplate reader (SpectraMax iD5, Molecular Devices, Sunnyvale, CA, USA). The absence of turbidity and the measured concentration of absorbance being less than the opposing group was taken as the MIC. The positive control used ampicillin at the same final concentration as Brevinin-1BW, the negative control used 50 μL of MH medium mixed with 50 μL of 2 × 10^6 CFU/mL bacterial solution, and the blank contained only 100 μL of MH medium. Three replicate wells were set up for each experiment, and each experiment was repeated three times. The MIC and all concentrations above the MIC of bacterial solution coated on MHA solid medium were placed into 37 °C incubator incubation for 18 h. The lowest concentration resulting in no colony growth was taken as the minimum bactericidal concentration (MBC).
# [2] = test system: S. aureus (ATCC 25923); format: cell-based, Staphylococcus aureus; details: ATCC 25923, 1 h
# Protocol: The temperature, serum, and pH stability of antimicrobial peptide Brevinin-1BW was investigated. S. aureus (ATCC 25923) was used to determine its stability. The antimicrobial peptide solution was prepared and placed at −20 °C, 4 °C, 37 °C, 60 °C, and 100 °C for 1 h. The MIC was measured with 96-well plate method to detect the effect of temperature. […] The pH stability was achieved by inoculating S. aureus into MH medium and culturing them with shaking to reach the logarithmic growth phase. This was then diluted to 10^6 CFU/mL. Brevinin-1BW was incubated in PBS at various pH values, pH = 2 or 12, for 1 h at 37 °C. The minimal inhibitory concentrations (MIC) of the peptides were then determined. All the above experiments were repeated more than three times.
# [3] = test system: E. hormaechei (ATCC700323); experiment: microbe, parasite or virus in culture; format: cell-based, Enterobacter hormaechei; details: ATCC700323, 18 h
# Protocol: as §1
# [4] = test system: sheep erythrocytes; format: cell-based; details: red cells of sheep, 2 h
# Protocol: A hemolytic assay of Brevinin-1BW was conducted using sheep erythrocytes (Solarbio, Beijing, China) at a concentration of 2% (v/v) of erythrocyte suspension. […] After centrifugation at 1000 rpm for 15 min, the absorbance of the supernatant was analyzed using a multifunctional enzyme standardizer with the wavelength set at 570 nm. The experiment was repeated three times. […] Haemolysis%=(A0−A2)/(A0−A1)×100
# [5] = test system: S. aureus (ATCC 25923) biofilm formation; format: cell-based, Staphylococcus aureus; details: ATCC 25923, 24 h
# Protocol: The plates were washed three times with sterile PBS and fixed with methanol for 0.5 h. After drying, the cells were stained with 1% crystal violet solution for 0.5 h. They were washed three times with deionized water and dissolved in 100 µL absolute ethanol. Absorbance was measured at 600 nm. Experiments were repeated four times independently.
# [6] = test system: S. aureus (MDR ATCC29213); experiment: microbe, parasite or virus in culture; format: cell-based, Staphylococcus aureus; details: ATCC29213, 18 h
# Protocol: as §1
# [7] = test system: S. aureus (ATCC25923); experiment: microbe, parasite or virus in culture; format: cell-based, Staphylococcus aureus
# Protocol: as §1
# [8] = test system: S. aureus mature biofilm; experiment: Biofilm clearance, crystal violet; format: cell-based, Staphylococcus aureus; details: S. aureus 24 h biofilm
# Protocol: Biofilm clearance of Brevinin-1BW was determined using a 96-well plate assay by first inoculating 100 µL of S. aureus bacterial suspension (5 × 10^5 CFU/mL) and incubating for 24 h at 37 °C. They were washed three times with sterile PBS. […] After 24 h of incubation, the cells were washed three times with sterile PBS. Methanol was added and fixed for 0.5 h and dried aseptically. A 1% crystal violet solution was added for 0.5 h and washed three times with sterilized deionized water. Absolute ethanol dissolved the biofilm. Absorbance was measured at 600 nm. Experiments were repeated four times independently.
# [9] = LPS-binding assay, checkerboard with S. aureus; format: cell-based; details: LPS higher than 5 μg/mL, 37 °C, 18 h, OD600
# Protocol: The lipopolysaccharide-binding assay was performed using the checkerboard method. Dissolve and prepare LPS (Solarbio, Beijing, China) and Brevinin-1BW with Muller Hinton (MH), add LPS with a final concentration of 0–160 μg/mL along the X-axis, and add 100–0 μg/mL Brevinin-1BW along the Y-axis. Then, an additional 10^5 CFU of S. aureus was added to bring the final volume to 200 μL. It was incubated at 37 °C for 18 h, measure the OD 600 value, and the MIC value at different LPS concentrations was recorded. The experiment was repeated three times.
smiles,measurement,setting,value
CC[C@H](C)[C@@H]1NC(=O)[C@H](CCCCN)NC(=O)[C@@H](NC(=O)[C@H](Cc2ccccc2)NC(=O)[C@@H](NC(=O)[C@@H](NC(=O)[C@@H]2CCCN2C(=O)[C@H](CC(C)C)NC(=O)[C@H](Cc2ccccc2)NC(=O)[C@H](CO)NC(=O)[C@H](C)NC(=O)[C@H](C)NC(=O)[C@H](CC(C)C)NC(=O)CNC(=O)[C@H](C)NC(=O)[C@H](CC(C)C)NC(=O)[C@H](CC(C)C)NC(=O)[C@@H]2CCCN2C(=O)[C@H](CC(C)C)NC(=O)[C@@H](N)Cc2ccccc2)[C@@H](C)O)[C@@H](C)CC)CSSC[C@@H](C(=O)O)NC(=O)[C@H](CCCCN)NC(=O)[C@H](CCCNC(=N)N)NC(=O)[C@H](CO)NC1=O [Brevinin-1BW] (H-FLPLLAGLAASFLPTIFCKISRKC-OH; disulfide 18-24),MBC,[1],>100 µg/mL
same,MIC,[1],50 µg/mL
same,MIC after temperature treatment,[2],6.25 µg/mL
same,MIC after pH treatment,[2]; pH 2,6.25 µg/mL
same,MIC after pH treatment,[2]; pH 12,6.25 µg/mL
same,MBC,[3],>100 µg/mL
same,MIC,[3],100 µg/mL
same,HC50 (50% hemolytic concentration),[4],35.8 µg/mL
same,inhibition of biofilm formation,[5]; 0.5,35.76%
same,inhibition of biofilm formation,[5]; 2,83.67%
same,MBC,[6],25 µg/mL
same,MIC,[6],6.25 µg/mL
same,MBC,"[7]; ATCC25923, 18 h",6.25 µg/mL
same,MIC,"[7]; ATCC25923, 18 h",6.25 µg/mL
same,reduction of viability,"[7]; S. aureus, at 6.25 μg/mL",99.9%
same,clearance rate of the mature biofilm,[8]; 0.5 × MIC,50.02%
same,clearance rate of the mature biofilm,[8]; 2 × MIC,60.99%
same,antibacterial activity against S. aureus in the presence of LPS,[9],gradually decreased

# — publication PMC11013252, “Exploration of the Antibacterial and Anti-Inflammatory Activity of a Novel Antimicrobial Peptide Brevinin-1BW” (Molecules, 2024)
